Earlier results on 24 compounds are cited in US20050255458A1, “Drug discovery assays based on the biology of chronic disease” (priority 2002, published 2005).

The test system of one data set is anagen hair follicles. The following applies: cited from earlier work; for scalp hair growth: Philpott 1996.
Another data set has as its system TF. As to conditions: cited from earlier work; for effect on Cu^+2 induced procoagulant activity: probucol 20, vitamin E 50, BHT 50, U74389G 20 μmol/L.
Another data set relates to AR gene. As to conditions: cited from earlier work.
Another data set deals with Rb. As to conditions: cited from earlier work; for increase in Rb mRNA: MEL cells, maximum on day three of induction.
For a further data set, the system named is ERK1/2. The following applies: cited studies, various cells; cited from earlier work.
Data set [1] concerns ERK. The following applies: cited from earlier work.
The subject of data set [2] is ERK. The following applies: A variety of cell types; cited from earlier work.
Data set [3] has as its system obese (fa/fa) Zucker rats. The following applies: cited from earlier work.

Like-named read-outs stand apart in the source and are kept apart here. Where a SMILES comes first, the peptide text is derived from it. [ ]: non-standard residue; d: D form. Aoe = N[C@@H](CCCCCC(=O)[C@@H]1CO1)C(=O)O

Regarding `CNc1ccc2oc(C[C@H]3O[C@@]4(CC[C@H]3C)O[C@H]([C@H](C)C(=O)c3ccc[nH]3)[C@H](C)C[C@H]4C)nc2c1C(=O)O` [A 23187], the hair growth entry in the data set on anagen hair follicles (6 days culture, A 23187 2 μM, TPA 1 μM, IL-1 100 ng per ml (Hoffmann 1997)) is on record as “significantly inhibited hair growth”.
On to `Cc1cc(C(C)(C)C)c(O)c(C(C)(C)C)c1` [BHT], for which, in the data set on TF, the “effect on Cu^+2 induced procoagulant activity” value is reported as “inhibited the Cu^+2 induced procoagulant activity”.
Take `[Cu+2]` [Cu+2]: in the data set on TF (at 2 hours), the “TF mRNA level” value was 50%. The “increase of TF mRNA” value in the data set on TF (at 6 hours) is listed as 3.5 fold.
Turning to `CC(=O)O[C@]1(C(C)=O)CC[C@H]2[C@@H]3C=C(Cl)C4=CC(=O)[C@@H]5C[C@@H]5[C@]4(C)[C@H]3CC[C@@]21C` [Cyproterone acetate], in the data set with AR gene (LNCaP), the “Effect on [mRNAAR]” value was “↓[mRNAAR]”.
As to `C[S+](C)[O-]` [DMSO, dimethyl sulfoxide], the “increase in Rb mRNA” value in the data set on Rb is on record as 11 fold.
For `CC(=O)NCCCCCCNC(C)=O` [HMBA, hexamethylene bisacetamide], the “cells irreversibly committed to differentiate” value in the data set with Rb (DS19/Sc9, 48 h of culture) is on record as “Over 90%”. Besides, the “increase in Rb transcription” value in the data set with Rb (DS19/Sc9) is recorded as 3.6 fold. For the same compound, the “increase in total pRb” value in the data set on Rb (DS19/Sc9 asynchronous cultures) is 2-to 3 fold. For the same compound, the “increase in Rb mRNA” value in the data set on Rb is on record as 7 fold.
With `C[C@]12C=CC(=O)C=C1CC[C@@H]1C2=CC[C@]2(C)[C@@H](C(=O)CN3CCN(c4cc(N5CCCC5)nc(N5CCCC5)n4)CC3)CC[C@@H]12.O=C(O)/C=C\C(=O)O` [U74389G], the “effect on Cu^+2 induced procoagulant activity” value in the data set with TF is “inhibited the Cu^+2 induced procoagulant activity”.
For `[Cu]` [copper], the “phosphorylation of ERK1/2” value with ERK1/2 is listed as “phosphorylation of ERK1/2”.
With `CC[C@H]1CN2CCc3cc(OC)c(OC)cc3[C@@H]2C[C@@H]1C[C@H]1NCCc2cc(OC)c(OC)cc21` [emetine], the “c-mos expression and ERK phosphorylation” value with ERK [1] (starfish eggs) was “inhibition of c-mos expression and ERK phosphorylation”.
For `C[C@]12CC[C@@H]3c4ccc(O)cc4CC[C@H]3[C@@H]1CCC2=O` [estron], in the data set with ERK1/2, the “phosphorylation of ERK1/2” value was “phosphorylation of ERK1/2”.
With `CC[C@H](C)[C@@H]1NC(=O)[C@H](Cc2ccc(O)cc2)NC(=O)[C@@H](N)CSSC[C@@H](C(=O)N2CCC[C@H]2C(=O)N[C@@H](CC(C)C)C(=O)NCC(N)=O)NC(=O)[C@H](CC(N)=O)NC(=O)[C@H](CCC(N)=O)NC1=O` [oxytocin], in the data set with ERK1/2, the “phosphorylation of ERK1/2” value is “phosphorylation of ERK1/2”.
For `CC(C)(Sc1cc(C(C)(C)C)c(O)c(C(C)(C)C)c1)Sc1cc(C(C)(C)C)c(O)c(C(C)(C)C)c1` [probucol], the “effect on Cu^+2 induced procoagulant activity” value with TF is listed as “inhibited the Cu^+2 induced procoagulant activity”.
As for `C/C=C(/C)C(=O)O[C@H]1C(C)=C2[C@H]([C@@H]1OC(=O)CCCCCCC)[C@@](C)(OC(C)=O)C[C@H](OC(=O)CCC)[C@@]1(O)[C@H]2OC(=O)[C@@]1(C)O` [thapsigargin], in the data set on ERK1/2, the “phosphorylation of ERK1/2” value is “phosphorylation of ERK1/2”.
`O=C1N[C@@H](Cc2ccccc2)C(=O)N2CCC[C@@H]2C(=O)N[C@@H](CCCCCC(=O)[C@@H]2CO2)C(=O)N[C@H]1Cc1ccccc1` [trapoxin] (cyclo(FF[dP][Aoe])): the “phosphorylation of ERK1/2” value in the data set on ERK1/2 is listed as “phosphorylation of ERK1/2”.
Take `CC(/C=C/C(=O)NO)=C\[C@@H](C)C(=O)c1ccc(N(C)C)cc1` [trichostatin A]: the “phosphorylation of ERK1/2” value in the data set on ERK1/2 is listed as “phosphorylation of ERK1/2”.
On to `[Zn]` [zinc], for which the “phosphorylation of ERK1/2” value in the data set with ERK1/2 was “phosphorylation of ERK1/2”.
Regarding IL-β: printed IL-β, presumably IL-1β, the scalp hair growth entry in the data set with anagen hair follicles is “inhibition of scalp hair growth”.
Consider TNFα, for which the scalp hair growth entry in the data set on anagen hair follicles is “inhibition of scalp hair growth”. The “Effect on [ERK^phos]” value in the data set with ERK [2] was “↑[ERK^phos]”. Also, in data set [3] (50 ng/rat), the “decrease of nighttime feeding (12 hours)” value is listed as 13%, the “decrease of short-term feeding (4 hours)” value is on record as 17% and the “decrease of total daily food intake” value is 11%. In data set [3] (100 ng/rat), the “decrease of nighttime feeding (12 hours)” value is 14%, the “decrease of short-term feeding (4 hours)” value is on record as 20% and the “decrease of total daily food intake” value is on record as 12%. In data set [3] (500 ng/rat), the “decrease of nighttime feeding (12 hours)” value is 13%, the “decrease of short-term feeding (4 hours)” value is on record as 20% and the “decrease of total daily food intake” value is 11%. Moreover, in the data set with AR gene (LNCaP), the “AR transcription in run-on assays” value was “No change in run-on” and the “Effect on [mRNAAR]” value was “↓[mRNAAR]”.
Consider estrogen, for which the “growth of isolated hair follicles” value in the data set on anagen hair follicles (Kondo 1990) is listed as “growth inhibition”.
For interferon-γ: ERK agent cytokine, the “phosphorylation of ERK1/2” value in the data set with ERK1/2 is given as “phosphorylation of ERK1/2”.
Turning to interleukin 1β: cytokine, ERK agent, the “phosphorylation of ERK1/2” value in the data set with ERK1/2 is given as “phosphorylation of ERK1/2”.
Turning to interleukin 6: cytokine, ERK agent, the “AR mRNA” value in the data set on AR gene (LNCaP (Lin 2001)) is on record as “decreased AR mRNA”. For the same compound, the ERK phosphorylation entry in the data set with ERK [1] (AF-10 human B cell line) and with ERK [1] (LNCaP cells) was “increased ERK phosphorylation” throughout. Besides, in the data set with ERK1/2, the “phosphorylation of ERK1/2” value is “phosphorylation of ERK1/2”.
As to transforming growth factor β, the “phosphorylation of ERK1/2” value in the data set with ERK1/2 is “phosphorylation of ERK1/2”.
With tumor necrosis factor α, in the data set on ERK1/2, the “phosphorylation of ERK1/2” value is “phosphorylation of ERK1/2”.
